ChEMBL document CHEMBL4837252, “Zinc ionophores isolated from Terminalia bellirica fruit rind extract protect against cardiomyocyte hypoxia/reoxygenation injury” (2021)
The source made the active and inactive calls. The calls are words filed in the database; no cut-off is given here.

Columns and labels:
[1] = Zinc ionophore activity assessed as uptake of zinc ions into liposomes by measuring increase in liposome-encapsulated FluoZin3-fluorescence at 10 uM measured after 1 hr in presence of ZnCl2 by fluorescence analysis relative to control
[2] = Zinc ionophore activity assessed as uptake of zinc ions into liposomes by measuring increase in liposome-encapsulated FluoZin3-fluorescence at 10 uM measured after 1 hr in presence of ZnCl2 and TPEN by fluorescence analysis
[3] = test system: H9c2; test: Cardioprotective activity in rat H9c2 cells assessed as reduction in hypoxia/reoxygenation-induced intracellular Zn2+ level depletion by measuring improvement in intracellular TSQ fluorescence intensity at 10 uM treated at the onset of 1 hr reoxygenation period in the presence of ZnCl2 by TSQ staining based fluorescence analysis relative to control; type: functional
[4] = test system: H9c2; test: Cardioprotective activity against hypoxia/reoxygenation-induced injury in rat H9c2 cells assessed as cell viability at 10 uM treated after 8 hrs of hypoxia and before 16 hrs of reoxygenation period by MTT assay; type: functional, cell-based
[5] = test system: H9c2; test: Cardioprotective activity against hypoxia/reoxygenation-induced injury in rat H9c2 cells assessed as cell viability at 10 uM treated after 8 hrs of hypoxia and before 16 hrs of reoxygenation period in presence of ZnCl2 by MTT assay; type: functional; details: read-out: Activity
[6] = test system: H9c2; test: Inhibition of apoptosis in hypoxia/reoxygenation induced injury in rat H9c2 cells assessed as caspase-3 activity at 10 uM treated after 8 hrs of hypoxia and before 16 hrs of reoxygenation period in presence of ZnCl2 (reference value: 187%); type: functional; design: scale not given: the % may be the effect or the level left
[7] = test system: H9c2; test: (§1) Inhibition of apoptosis in hypoxia/reoxygenation induced injury in rat H9c2 cells assessed as viable cells at 10 uM treated after 8 hrs of hypoxia and before 2 hrs of reoxygenation period in presence of ZnCl2 by AnnexinV-FITC/propidium iodide staining based flow cytometry analysis (reference value: 55.35%); type: functional; details: read-out: Activity
[8] = test system: H9c2; test: as §1, with “early apoptotic” for “viable”, “36.45%)” for “55.35%)”; type: functional; design: scale not given: the % may be the effect or the level left
[9] = test system: H9c2; test: as §1, with “late apoptotic” for “viable”, “7%)” for “55.35%)”; type: functional; design: scale not given: the % may be the effect or the level left
[10] = test system: H9c2; test: as §1, with “necrotic” for “viable”, “1.25%)” for “55.35%)”; type: functional; design: scale not given: the % may be the effect or the level left
[11] = test system: H9c2; test: Inhibition of apoptosis in hypoxia/reoxygenation induced injury in rat H9c2 cells assessed as viable cells at 10 uM treated after 8 hrs of hypoxia and before 2 hrs of reoxygenation period by AnnexinV-FITC/propidium iodide staining based flow cytometry analysis (reference value: 55.35%); type: functional; details: read-out: Activity
[12] = test system: H9c2; test: Inhibition of apoptosis in hypoxia/reoxygenation induced injury in rat H9c2 cells assessed as early apoptotic cells at 10 uM treated after 8 hrs of hypoxia and before 2 hrs of reoxygenation period by AnnexinV-FITC/propidium iodide staining based flow cytometry analysis (reference value: 36.45%); type: functional; design: scale not given: the % may be the effect or the level left
[13] = test system: H9c2; test: Inhibition of apoptosis in hypoxia/reoxygenation induced injury in rat H9c2 cells assessed as late apoptotic cells at 10 uM treated after 8 hrs of hypoxia and before 2 hrs of reoxygenation period by AnnexinV-FITC/propidium iodide staining based flow cytometry analysis (reference value: 7%); type: functional; design: scale not given: the % may be the effect or the level left
[14] = test system: H9c2; test: Inhibition of apoptosis in hypoxia/reoxygenation induced injury in rat H9c2 cells assessed as late necrotic cells at 10 uM treated after 8 hrs of hypoxia and before 2 hrs of reoxygenation period by AnnexinV-FITC/propidium iodide staining based flow cytometry analysis (reference value: 1.25%); type: functional; design: scale not given: the % may be the effect or the level left

SMILES | fold change (FC) [1] | Activity [2] | fold change (FC) [3] | Activity [4] | viability at 10 µM [5] [%] | Activity [6] [%] | viability at 10 µM [7] [%] | Activity [8] [%] | Activity [9] [%] | Activity [10] [%] | viability at 10 µM [11] [%] | Activity [12] [%] | Activity [13] [%] | Activity [14] [%]
Oc1c(I)cc(Cl)c2cccnc12 | 40 | inactive | – | – | – | – | – | – | – | – | – | – | – | –
Oc1cc(O)c2c(c1)O[C@H](c1cc(O)c(O)c(O)c1)[C@H](O)C2 [EPIGALLOCATECHIN] | 8 | inactive | 1 | inactive | 52 | 158 | 61.8 | 26.47 | 6.72 | 5.05 | 47 | 44.27 | 4.77 | 3.92
O=C(O[C@@H]1Cc2c(O)cc(O)cc2O[C@@H]1c1ccc(O)c(O)c1)c1cc(O)c(O)c(O)c1 [EPICATECHIN GALLATE] | 16 | inactive | 2.1 | inactive | 60 | 139 | 73.5 | 22.8 | 2.32 | 1.42 | 54.2 | 37.4 | 7.32 | 1.05
O=C(O[C@@H]1Cc2c(O)cc(O)cc2O[C@@H]1c1cc(O)c(O)c(O)c1)c1cc(O)c(O)c(O)c1 [EPIGALOCATECHIN GALLATE] | 28 | inactive | 4 | inactive | 78 | 112 | 80.1 | 16.12 | 2.72 | 0.97 | 52.5 | 37.4 | 8.12 | 2.02
